Test results as given in patent US20230250060A1 (IFM Due, Inc., priority 2022, published 2023).

Biological target: T1, STING (Homo sapiens, UniProt Q86WV6, G230A/H232R/R293Q/R71H)
T1 construct: host or cells: THP1-Dual KO-IFNAR2 cells
Test: STING reporter assay (luciferase) in THP1-Dual KO-IFNAR2 cells stimulated with 2′3′cGAMP
Type: cell-based
Details: 2′3′cGAMP 15 μM final, 24 h, luciferase reporter activity, read-out: Pharmaron, THP1_IFNAR2 STING 24 h Luci Normalized: GeoMean EC50
Protocol: STING pathway activation by the compounds described herein was measured using TTIP1-Dual™ cells (KO-IFNAR2).
TTIP1-Dual™ KO-IFNAR2 Cells (obtained from invivogen) were maintained in RPMI, 10% FCS, 5 ml P/S, 2 mM L-glut, 10 mM Hepes, and 1 mM sodium pyruvate. Compounds were spotted in empty 384 well tissue culture plates (Greiner 781182) by Echo for a final concentration of 0.0017-100 μM. Cells were plated into the TC plates at 40 μL per well, 2×10E6 cells/mL. For activation with STING ligand, 2′3′cGAMP (MW 718.38, obtained from Invivogen), was prepared in Optimem media.
The following solutions were prepared for each 1×384 plate: • Solution A: 2 mL Optimem with one of the following stimuli: • […] • Solution B: 2 mL Optimem with […] Lipofectamine 2000→Incubate 5 min at RT
2 mL of solution A and 2 ml Solution B was mixed and incubated for 20 min at room temperature (RT). 20 μL of transfection solution (A+B) was added on top of the plated cells, with a final 2′3′cGAMP concentration of 15 μM. The plates were then centrifuged immediately at 340 g for 1 minute, after which they were incubated at 37° C., 5% CO2, >98% humidity for 24 h. Luciferase reporter activity was then measured. EC50 values were calculated by using standard methods known in the art.
Luciferase reporter assay: 10 μL of supernatant from the assay was transferred to white 384-plate with flat bottom and squared wells. One pouch of QUANTI-Luc™ Plus was dissolved in 25 mL of water. 100 μL of QLC Stabilizer per 25 mL of QUANTI-Luc™ Plus solution was added. 50 μL of QUANTI-Luc™ Plus/QLC solution per well was then added. Luminescence was measured on a Platereader (e.g., Spectramax I3X (Molecular Devices GF3637001)).
Luciferase reporter activity was then measured. EC50 values were calculated by using standard methods known in the art.

T1 sequence (Q86WV6 whole entry R71H/G230A/H232R/R293Q): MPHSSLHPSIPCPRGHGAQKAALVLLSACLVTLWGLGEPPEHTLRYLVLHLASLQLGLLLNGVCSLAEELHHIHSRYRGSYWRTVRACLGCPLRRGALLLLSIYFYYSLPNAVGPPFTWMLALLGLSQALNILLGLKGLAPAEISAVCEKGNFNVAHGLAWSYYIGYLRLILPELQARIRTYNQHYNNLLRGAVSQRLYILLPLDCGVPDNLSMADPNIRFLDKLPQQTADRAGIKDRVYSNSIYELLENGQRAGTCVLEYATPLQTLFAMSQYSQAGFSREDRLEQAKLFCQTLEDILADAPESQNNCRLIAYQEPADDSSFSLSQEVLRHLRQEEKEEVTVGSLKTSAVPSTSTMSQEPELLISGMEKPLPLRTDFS

Compound | EC50
O=C(Nc1c[nH]c2ccc(O[C@H]3C[C@@H](c4ccc(C(F)(F)F)cc4)C3)cc12)C12CC(F)(C1)C2 [Compound 132, 3-fluoro-N-(5-((1s,3s)-3-(4-(trifluoromethyl)phenyl)cyclobutoxy)-1H-indol-3-yl)bicyclo[1.1.1]pentane-1-carboxamide] | 200 to 1000 nM
O=C(Nc1c[nH]c2ccc(O[C@H]3C[C@H](c4ccc(C(F)(F)F)cc4)C3)cc12)C12CC(F)(C1)C2 [Compound 133, 3-fluoro-N-(5-((1r,3r)-3-(4-(trifluoromethyl)phenyl)cyclobutoxy)-1H-indol-3-yl)bicyclo[1.1.1]pentane-1-carboxamide] | 40 to 200 nM
Cn1ccnc1C(=O)Nc1c[nH]c2ccc(OCc3ccc(C(F)(F)F)cc3)cc12 [Compound 136, 1-methyl-N-(5-((4-(trifluoromethyl)benzyl)oxy)-1H-indol-3-yl)-1H-imidazole-2-carboxamide] | 200 to 1000 nM
O=C(Nc1c[nH]c2ccc(OCc3ccc(C(F)(F)F)cc3)cc12)C12CC(F)(C1)C2 [Compound 138, 3-fluoro-N-(5-((4-(trifluoromethyl)benzyl)oxy)-1H-indol-3-yl)bicyclo[1.1.1]pentane-1-carboxamide] | 200 to 1000 nM
Cn1ccnc1C(=O)Nc1c[nH]c2ccc(O[C@H]3C[C@@H](c4ccc(C(F)(F)F)cc4)C3)cc12 [Compound 139, 1-methyl-N-(5-((1s,3s)-3-(4-(trifluoromethyl)phenyl)cyclobutoxy)-1H-indol-3-yl)-1H-imidazole-2-carboxamide] | 200 to 1000 nM
O=C(Nc1c[nH]c2ccc(CCOc3ccc(C(F)(F)F)cc3)cc12)c1ncco1 [Compound 145, N-(5-(2-(4-(trifluoromethyl)phenoxy)ethyl)-1H-indol-3-yl)oxazole-2-carboxamide] | 200 to 1000 nM

Next, values leading:

EC50 | Compound
200 to 1000 nM | O=C(Nc1c[nH]c2ccc(COCc3ccc(C(F)(F)F)cc3)cc12)C12CC(F)(C1)C2 [Compound 134, 3-fluoro-N-(5-(((4-(trifluoromethyl)benzyl)oxy)methyl)-1H-indol-3-yl)bicyclo[1.1.1]pentane-1-carboxamide]
200 to 1000 nM | O=C(Nc1c[nH]c2ccc(CCOc3ccc(C(F)(F)F)cc3)cc12)C12CC(C1)C2 [Compound 135]
200 to 1000 nM | O=C(Nc1c[nH]c2ccc(OCc3ccc(C(F)(F)F)cc3)cc12)c1ccn[nH]1 [Compound 137, N-(5-((4-(trifluoromethyl)benzyl)oxy)-1H-indol-3-yl)-1H-pyrazole-5-carboxamide]
200 to 1000 nM | Cn1ccnc1C(=O)Nc1c[nH]c2ccc(OCC[C@@H]3C[C@@H]4CN(CC(F)(F)F)C[C@@H]4C3)cc12 [Compound 140, 1-methyl-N-(5-(2-((3aR,5r,6aS)-2-(2,2,2-trifluoroethyl)octahydrocyclopenta[c]pyrrol-5-yl)ethoxy)-1H-indol-3-yl)-1H-imidazole-2-carboxamide]
200 to 1000 nM | O=C(Nc1c[nH]c2ccc(OCc3ccc(C(F)(F)F)cc3)cc12)c1nccs1 [Compound 141, N-(5-((4-(trifluoromethyl)benzyl)oxy)-1H-indol-3-yl)thiazole-2-carboxamide]
200 to 1000 nM | CC12CC(C(=O)Nc3c[nH]c4ccc(OCC[C@@H]5C[C@@H]6CN(CC(F)(F)F)C[C@@H]6C5)cc34)(C1)C2 [Compound 142, 3-methyl-N-(5-(2-((3aR,5r,6aS)-2-(2,2,2-trifluoroethyl)octahydrocyclopenta[c]pyrrol-5-yl)ethoxy)-1H-indol-3-yl)bicyclo[1.1.1]pentane-1-carboxamide]
40 to 200 nM | Cn1ccnc1C(=O)Nc1c[nH]c2ccc(CCOc3ccc(C(F)(F)F)cc3)cc12 [Compound 143, 1-methyl-N-(5-(2-(4-(trifluoromethyl)phenoxy)ethyl)-1H-indol-3-yl)-1H-imidazole-2-carboxamide]
40 to 200 nM | O=C(Nc1c[nH]c2ccc(CCOc3ccc(C(F)(F)F)cc3)cc12)C1CC2(CCC2)C1 [Compound 144, N-(5-(2-(4-(trifluoromethyl)phenoxy)ethyl)-1H-indol-3-yl)spiro[3.3]heptane-2-carboxamide]
